Where a name gives a salt, the structure may show the parent alone.
Key:
[1] = tested on: rats; test: Neurotoxicity in rats, positional sense test and gait stance test; details: rats p.o.; positional sense test and gait stance test
Procedure: (§1) Neurotoxicity of the claimed agents was also assessed in mice (i.p. administration) by the rotorod ataxia test and/or in rats (p.o. administration) by positional sense test and gait stance test. […] The term quantitating the neurotoxicity is the medial neurological toxic dose (TD50), was determined in the above tests.

[2] = tested on: mice; test: Neurotoxicity in mice, rotorod ataxia test; details: mice i.p.; rotorod ataxia test
Procedure: as §1

[3] = tested on: Mechanically dissociated Neonatal Rat Cerebellum; test: Reversal of NMDA induced cell death, neonatal rat cerebellum cultures; format: cell-based; details: for SURVIVING CELL IN CULTURE: relative to control (100%); for PERCENT PROTECTION: cell survival minus NMDA effect (30%); for EFFECTIVE PROTECTION: percent protection x 100/70
Procedure: (§2) The cerebellum was aseptically dissociated from 6 or 7-day old rat pups and placed in a 15 ml sterile plastic conical tube containing 3 ml of Dulbecco's modified Eagle's medium (DMEM) with a high glucose concentration ([…]) and 2 mM (v/v) L-glutamine and an antibiotic antimitotic mixture. The cerebella were then dissociated after 20-25 passages through a sterile 13 gauge, 10 cm long stainless steel needle attached to a 5 ml syringe with an inserted 45 micrometer pore nylon sieve. The dissociated cells were centrifuged at 200 g for 5 minutes. The supernatant was discarded and the cells resuspended in medium enriched with 15% (v/v) heat inactivated fetal calf serum. Cell viability was determined by the tryptan blue exclusion test.
Cells were plated at a density of 200/mm^2 on poly-L-lysine coated surfaces. Poly-L-lysine coated glass coverslips were prepared at least one hour in advance of plating by immersing sterile coverslips in sterile distilled water solution containing 15 microgram/ml poly-L-lysine, and washing in sterile water just prior to use. The plated cells were covered with enriched medium and incubated at 37° C. in an atmosphere of 5% CO2 in air and 97% humidity. After three days in culture, the media was replaced with media containing the desired test compound. Each test compound was tested in duplicate. Toxic-dose response was determined for each compound.
Four groups were run in each set of experiments;
I. Control, consisting of enriched media alone,
II. N-methyl-D-aspartate (NMDA, 1 mM for 3 hours) as the cytotoxic challenge,
III. Test compound plus NMDA, and
IV. Positive control, spermine(0.01 micromoles) plus NMDA.
Nerve cell survival was evaluated by phase contrast microscopy and tryptan blue staining after 24 hours.
Surviving cells in culture are measured relative to control (100%) as described above. Percent protection is the Cell Survival for the test compound minus the NMDA effect. Thus, maximal protection is 100% minus 30% NMDA effect i.e. 70%. The Effective Protection was calculated as the percent of the Percent Protection (X) divided by the maximal protection value (e.g. X×100/70).

[4] = tested on: Mechanically dissociated Neonatal Rat Cerebellum; test: Enhancement of cell survival, neonatal rat cerebellum cultures without NMDA; format: cell-based; details: 0.005 μM; 24 hours after addition, fourth day; percentage of control cells; no NMDA
Procedure: as §2, with “The supernatant was discarded and the cells resuspended in medium enriched with 15% (v/v) heat inactivated fetal calf serum.” left out
Cells were plated at a density of 200/mm^2 on poly-L-lysine coated surfaces. Poly-L-lysine coated glass coverslips were prepared at least one hour in advance of plating by immersing sterile coverslips in sterile distilled water solution containing 15 microgram/ml poly-L-lysine, and washing in sterile water just prior to use. […] After three days in culture, the media was replaced with media containing the desired test compound. Each test compound was tested in duplicate. Toxic-dose response was determined for each compound.
Cell cultures were grown as described above but in the absence of NMDA and after 3 days a dose of test compound was added. Cell survival was monitored as described above.

[5] = tested on: mongolian gerbils; test: Global brain ischemia in gerbils; format: in vivo, mongolian gerbil; details: 3 injections, fraction of hippocampi protected from ischemia, 14 days post-ischemia
Procedure: Male mongolian gerbils, aged 2.5-5 months, housed 4-8 in a cage, were supplied freely with food and water and maintained at 24° C. with a 12 hour day/night cycle. […] Each artery was clamped for 5 minutes with aneurysm clips to produce global brain ischemia. The anesthesia was discontinued upon clamping. After 5 minutes the clamps were removed and the wound closed with skin clips.
For treatment, the test compound or vehicle were injected intra-peritoneally (ip) in a volume of 50 microliters of solvent per 10 g body weight. The first injection was given two minutes after clamp removal, and thereafter daily for the next 2 post-operative days (total of 3 injections).
Seven groups each of 4-8 animals were compared:
V. Ischemia—Test compound treated, one sub-group per concentration tested,
VI. Ischemia and pentobarbital (40 mg/kg) as positive control).
Analysis of neuronal damage was performed 14 days post-ischemia by counting pyramidal neurons throughout the CA1 layer of the anterior hippocampus in […] thick (paraffin) coronal brain sections stained with hematoxylin and erosin.
Percent Protection values represent the fraction of hippocampi protected from ischemia in a group of animals treated with the stated dose of compound.

[6] = tested on: rats; test: Maximal electroshock (MES) model, rats; details: rats, oral (p.o.) administration; median effective dose
[7] = tested on: mice; test: Maximal electroshock (MES) model, mice; details: mice, intraperitoneal (i.p.) administration
[8] = tested on: rats; details: rats p.o.
[9] = tested on: mice; details: mice i.p.

## NC(=O)CN[C@H]1CCc2ccccc21 [Compound 2, (S)-N-(2-Acetamido)-1-aminoindan.HCl]
[1]
  RATS TD50: >500 mg/kg
[2]
  MICE TD50: 137 mg/kg
[3]; 0.005 μM + NMDA 1 mM 3 hours
  SURVIVING CELL IN CULTURE: 56%
[3]; 0.005 μM + NMDA
  PERCENT PROTECTION: 26%
  EFFECTIVE PROTECTION: 37%
[3]; 0.010 μM + NMDA 1 mM 3 hours
  SURVIVING CELL IN CULTURE: 51%
[3]; 0.010 μM + NMDA
  PERCENT PROTECTION: 21%
  EFFECTIVE PROTECTION: 30%
[3]; 0.100 μM + NMDA 1 mM 3 hours
  SURVIVING CELL IN CULTURE: 33%
[3]; 0.100 μM + NMDA
  PERCENT PROTECTION: 3%
  EFFECTIVE PROTECTION: 4%
[4]
  % ENHANCED SURVIVAL: 140%
[5]; 0.1 mg/kg ip
  PERCENT PROTECTION: 0%
[5]; 1.0 mg/kg ip
  PERCENT PROTECTION: 50.0%
[5]; 10.0 mg/kg ip
  PERCENT PROTECTION: 37.5%
[6]
  RATS MES 50: 21 mg/kg
[7]
  MICE MES ED50: 39 mg/kg
[8]
  RATS scMet ED50 PI: >250 mg/kg
[9]
  MICE scMet ED50 PI: >150 mg/kg

Reference: US6528685B2 (Teva Pharmaceutical Industries, Ltd., priority 1994, dated 2003)
